Measurements reported in patent publication US10582709B2, “Butyrolactones as herbicides” (FMC Corporation, priority 2015, dated 2020).

What was measured:
Type in all cases: in vivo
[1] = system: barnyardgrass (Echinochloa crus-galli); test: Test B flooded paddy test, barnyardgrass; conditions: 250 g ai/ha; applied to paddy water at 2-leaf stage; 13 to 15 d; scale 0 no effect to 100 complete control
Outline: (§1)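 Ratings use a 0-100 visual scale, where 100 is complete control, and compare treated plants with controls after 13 to 15 d of greenhouse growth. Compound went straight into paddy water kept 3 cm over the soil surface, applied to seedlings at the 2-leaf stage.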

[2] = system: ducksalad (Heteranthera limosa); test: Test B flooded paddy test, ducksalad; conditions: 250 g ai/ha; applied to paddy water at 2-leaf stage; 13 to 15 d; scale 0 no effect to 100 complete control
Outline: as §1

rice (Oryza sativa) = test: Test B flooded paddy test, rice; conditions: 250 g ai/ha; applied to paddy water at 2-leaf stage; 13 to 15 d; scale 0 no effect to 100 complete control
Outline: as §1

[3] = system: sedge, umbrella (small-flower umbrella sedge, Cyperus difformis); test: Test B flooded paddy test, umbrella sedge; conditions: 250 g ai/ha; applied to paddy water at 2-leaf stage; 13 to 15 d; scale 0 no effect to 100 complete control
Outline: as §1

[4] = system: barnyardgrass (Echinochloa crus-galli); test: Test A preemergence, barnyardgrass; conditions: visual rating after approx. 10 d, 0 to 100 scale, 0 no effect, 100 complete control
Outline: (§2)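 Seeds sown in loam soil–sand blend received a directed soil spray of compound in non-phytotoxic solvent with surfactant (preemergence); 2–10 cm, one- to two-leaf plants were sprayed with the same formulation (postemergence). Greenhouse, ~10 d, then visual injury versus untreated controls, rated 0 (no effect) to 100 (complete control).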

[5] = system: crabgrass (large crabgrass, Digitaria sanguinalis); test: Test A preemergence, crabgrass; conditions: visual rating after approx. 10 d, 0 to 100 scale, 0 no effect, 100 complete control
Description: (§3) Seeds of plant species selected from barnyardgrass (Echinochloa crus-galli), crabgrass (large crabgrass, Digitaria sanguinalis), kochia (Kochia scoparia), ragweed (common ragweed, Ambrosia elatior), morningglory (Ipomoea spp.), velvetleaf (Abutilon theophrasti), ryegrass, Italian (Italian ryegrass, Lolium multiflorum), foxtail, giant (giant foxtail, Setaria faberii), wheat (Triticum aestivum), corn (Zea mays), and pigweed (Amaranthus retroflexus), were planted into a blend of loam soil and sand and treated preemergence with a directed soil spray using test chemicals formulated in a non-phytotoxic solvent mixture which included a surfactant. At the same time, plants selected from these crop and weed species and also blackgrass (Alopecurus myosuroides), and galium (catchweed bedstraw, Galium aparine), were planted in pots containing the same blend of loam soil and sand and treated with postemergence applications of test chemicals formulated in the same manner. Plants ranged in height from 2 to 10 cm and were in the one- to two-leaf stage for the postemergence treatment. Treated plants and untreated controls were maintained in a greenhouse for approximately 10 d, after which time all treated plants were compared to untreated controls and visually evaluated for injury. Plant response ratings, summarized in Table A, are based on a 0 to 100 scale where 0 is no effect and 100 is complete control. A dash (-) response means no test result.

[6] = system: morningglory (Ipomoea spp.); test: Test A preemergence, morningglory; conditions: visual rating after approx. 10 d, 0 to 100 scale, 0 no effect, 100 complete control
Description: as §3

[7] = system: velvetleaf (Abutilon theophrasti); test: Test A preemergence, velvetleaf; conditions: visual rating after approx. 10 d, 0 to 100 scale, 0 no effect, 100 complete control
Description: as §3

[8] = system: foxtail, giant (giant foxtail, Setaria faberii); test: Test A preemergence, giant foxtail; conditions: visual rating after approx. 10 d, 0 to 100 scale, 0 no effect, 100 complete control
Outline: as §2

[9] = system: wheat (Triticum aestivum); test: Test A preemergence, wheat; conditions: visual rating after approx. 10 d, 0 to 100 scale, 0 no effect, 100 complete control
Description: as §3

corn (Zea mays) [10] = test: Test A preemergence, corn; conditions: visual rating after approx. 10 d, 0 to 100 scale, 0 no effect, 100 complete control
Description: as §3

[11] = system: pigweed (Amaranthus retroflexus); test: Test A preemergence, pigweed; conditions: visual rating after approx. 10 d, 0 to 100 scale, 0 no effect, 100 complete control
Outline: as §2

[12] = system: barnyardgrass (Echinochloa crus-galli); test: Test A postemergence, barnyardgrass; conditions: visual rating after approx. 10 d, 0 to 100 scale, 0 no effect, 100 complete control
Outline: as §2

[13] = system: crabgrass (large crabgrass, Digitaria sanguinalis); test: Test A postemergence, crabgrass; conditions: visual rating after approx. 10 d, 0 to 100 scale, 0 no effect, 100 complete control
Description: as §3

[14] = system: morningglory (Ipomoea spp.); test: Test A postemergence, morningglory; conditions: visual rating after approx. 10 d, 0 to 100 scale, 0 no effect, 100 complete control
Description: as §3

[15] = system: velvetleaf (Abutilon theophrasti); test: Test A postemergence, velvetleaf; conditions: visual rating after approx. 10 d, 0 to 100 scale, 0 no effect, 100 complete control
Description: as §3

[16] = system: foxtail, giant (giant foxtail, Setaria faberii); test: Test A postemergence, giant foxtail; conditions: visual rating after approx. 10 d, 0 to 100 scale, 0 no effect, 100 complete control
Outline: as §2

[17] = system: wheat (Triticum aestivum); test: Test A postemergence, wheat; conditions: visual rating after approx. 10 d, 0 to 100 scale, 0 no effect, 100 complete control
Outline: as §2

[18] = system: pigweed (Amaranthus retroflexus); test: Test A postemergence, pigweed; conditions: visual rating after approx. 10 d, 0 to 100 scale, 0 no effect, 100 complete control
Outline: as §2

corn (Zea mays) [19] = test: Test A postemergence, corn; conditions: 1000 g ai/ha, visual rating after approx. 10 d, 0 to 100 scale, 0 no effect, 100 complete control
Outline: as §2

In the case of `O=C(Nc1ccccc1Cl)C1C(=O)OCC1c1ccc(F)c(F)c1` (racemic) [Compound 3], the “Plant response rating, Flood, Barnyardgrass” value [1] is reported as 0, the “Plant response rating, Flood, Ducksalad” value [2] is reported as 0 and the “Plant response rating, Flood, Rice” value (rice (Oryza sativa)) is reported as 0. The “Plant response rating, Flood, Sedge, Umbrella” value [3] was 0, the “Plant response rating, Barnyardgrass” value ([4]; 125 g ai/ha) was 0 and the “Plant response rating, Barnyardgrass” value ([4]; 500 g ai/ha) was 30. The “Plant response rating, Crabgrass” value ([5]; 125 g ai/ha) was 40, the “Plant response rating, Crabgrass” value ([5]; 500 g ai/ha) was 50 and the “Plant response rating, Morningglory” value ([6]; 125 g ai/ha) was 0. For the same compound, the “Plant response rating, Morningglory” value ([6]; 500 g ai/ha) was 0, the “Plant response rating, Velvetleaf” value ([7]; 125 g ai/ha) was 0 and the “Plant response rating, Velvetleaf” value ([7]; 500 g ai/ha) was 0. For the same compound, the “Plant response rating, Foxtail, Giant” value ([8]; 125 g ai/ha) was 70, the “Plant response rating, Foxtail, Giant” value ([8]; 500 g ai/ha) was 80 and the “Plant response rating, Wheat” value ([9]; 125 g ai/ha) was 0. The “Plant response rating, Wheat” value ([9]; 500 g ai/ha) was 0, the “Plant response rating, Corn” value (corn (Zea mays) [10]; 125 g ai/ha) was 0 and the “Plant response rating, Corn” value (corn (Zea mays) [10]; 500 g ai/ha) was 0. The “Plant response rating, Pigweed” value ([11]; 125 g ai/ha) was 0, the “Plant response rating, Pigweed” value ([11]; 500 g ai/ha) was 0 and the “Plant response rating, Barnyardgrass” value ([12]; 125 g ai/ha) was 0. The “Plant response rating, Barnyardgrass” value ([12]; 500 g ai/ha) was 0, the “Plant response rating, Crabgrass” value ([13]; 125 g ai/ha) was 60 and the “Plant response rating, Crabgrass” value ([13]; 500 g ai/ha) was 70. For the same compound, the “Plant response rating, Morningglory” value ([14]; 125 g ai/ha) was 0, the “Plant response rating, Morningglory” value ([14]; 500 g ai/ha) was 0 and the “Plant response rating, Velvetleaf” value ([15]; 125 g ai/ha) was 0. The “Plant response rating, Velvetleaf” value ([15]; 500 g ai/ha) was 0, the “Plant response rating, Foxtail, Giant” value ([16]; 125 g ai/ha) was 50 and the “Plant response rating, Foxtail, Giant” value ([16]; 500 g ai/ha) was 60. For the same compound, the “Plant response rating, Wheat” value ([17]; 125 g ai/ha) was 0, the “Plant response rating, Wheat” value ([17]; 500 g ai/ha) was 0 and the “Plant response rating, Pigweed” value ([18]; 125 g ai/ha) was 0. The “Plant response rating, Pigweed” value ([18]; 500 g ai/ha) was 0.

For `O=C(Nc1ccccc1C(F)(F)F)C1C(=O)OCC1c1ccc(F)cc1` (stereo not shown) [Compound 6], the “Plant response rating, Flood, Barnyardgrass” value [1] was 0, the “Plant response rating, Flood, Ducksalad” value [2] was 0 and the “Plant response rating, Flood, Rice” value (rice (Oryza sativa)) was 0. For the same compound, the “Plant response rating, Flood, Sedge, Umbrella” value [3] was 0, the “Plant response rating, Barnyardgrass” value ([4]; 1000 g ai/ha) was 20 and the “Plant response rating, Crabgrass” value ([5]; 1000 g ai/ha) was 80. For the same compound, the “Plant response rating, Morningglory” value ([6]; 1000 g ai/ha) was 0, the “Plant response rating, Velvetleaf” value ([7]; 1000 g ai/ha) was 0 and the “Plant response rating, Foxtail, Giant” value ([8]; 1000 g ai/ha) was 80. The “Plant response rating, Wheat” value ([9]; 1000 g ai/ha) was 0, the “Plant response rating, Corn” value (corn (Zea mays) [10]; 1000 g ai/ha) was 0 and the “Plant response rating, Pigweed” value ([11]; 1000 g ai/ha) was 0. The “Plant response rating, Barnyardgrass” value ([12]; 1000 g ai/ha) was 20, the “Plant response rating, Crabgrass” value ([13]; 1000 g ai/ha) was 80 and the “Plant response rating, Morningglory” value ([14]; 1000 g ai/ha) was 0. The “Plant response rating, Velvetleaf” value ([15]; 1000 g ai/ha) was 0, the “Plant response rating, Foxtail, Giant” value ([16]; 1000 g ai/ha) was 80 and the “Plant response rating, Wheat” value ([17]; 1000 g ai/ha) was 0. For the same compound, the “Plant response rating, Corn” value (corn (Zea mays) [19]) was 0 and the “Plant response rating, Pigweed” value ([18]; 1000 g ai/ha) was 0.

`O=C(Nc1ccccc1F)C1C(=O)OCC1c1ccc(F)c(F)c1` (racemic) [Compound 4] was tested, and the “Plant response rating, Flood, Barnyardgrass” value [1] was 20, the “Plant response rating, Flood, Ducksalad” value [2] was 0 and the “Plant response rating, Flood, Rice” value (rice (Oryza sativa)) was 15. For the same compound, the “Plant response rating, Flood, Sedge, Umbrella” value [3] was 0, the “Plant response rating, Barnyardgrass” value ([4]; 1000 g ai/ha) was 70 and the “Plant response rating, Crabgrass” value ([5]; 1000 g ai/ha) was 90. The “Plant response rating, Morningglory” value ([6]; 1000 g ai/ha) was 0, the “Plant response rating, Velvetleaf” value ([7]; 1000 g ai/ha) was 0 and the “Plant response rating, Foxtail, Giant” value ([8]; 1000 g ai/ha) was 80. For the same compound, the “Plant response rating, Wheat” value ([9]; 1000 g ai/ha) was 0, the “Plant response rating, Corn” value (corn (Zea mays) [10]; 1000 g ai/ha) was 0 and the “Plant response rating, Pigweed” value ([11]; 1000 g ai/ha) was 0. For the same compound, the “Plant response rating, Barnyardgrass” value ([12]; 1000 g ai/ha) was 70, the “Plant response rating, Crabgrass” value ([13]; 1000 g ai/ha) was 90 and the “Plant response rating, Morningglory” value ([14]; 1000 g ai/ha) was 0. The “Plant response rating, Velvetleaf” value ([15]; 1000 g ai/ha) was 0, the “Plant response rating, Foxtail, Giant” value ([16]; 1000 g ai/ha) was 70 and the “Plant response rating, Wheat” value ([17]; 1000 g ai/ha) was 0. The “Plant response rating, Pigweed” value ([18]; 1000 g ai/ha) was 0.
